Measured values: the NIST ThermoML archive (doi:10.1016/j.jct.2006.04.007)
Values joined by “and” are separate entries in the source; they are usually repeats but may differ in a detail not shown here. Equal entries are not always repeated.

Experiment: mn = molality of the nth substance listed, in mol/kg
Settings: 350 kPa, Liquid; for apparent molar heat capacity: Extra sensitive DSC

CC(=O)N[C@@H](C=O)[C@@H](O)[C@H](O)[C@H](O)CO [N-acetyl-D-glucosamine] + O
Settings | apparent molar heat capacity | mass density
318.15 K, m1 = 0.1999 | – | 1004.1 kg/m3
318.15 K, m1 = 0.3018 | – | 1010.81 kg/m3
318.15 K, m1 = 0.5001 | – | 1023.43 kg/m3
318.15 K, m1 = 0.7003 | – | 1035.3 kg/m3
318.15 K, m1 = 0.958 | – | 1051.87 kg/m3
323.15 K, m1 = 0.0096 | 516 J/K/mol | –
323.15 K, m1 = 0.0207 | 501 J/K/mol | –
323.15 K, m1 = 0.03 | 483 J/K/mol and 488 J/K/mol | –
323.15 K, m1 = 0.07 | 493.4 J/K/mol | –
323.15 K, m1 = 0.1502 | 483.4 J/K/mol | –
323.15 K, m1 = 0.1999 | 495.3 J/K/mol | –
323.15 K, m1 = 0.3018 | 498.2 J/K/mol | –
323.15 K, m1 = 0.5001 | 502.3 J/K/mol | –
323.15 K, m1 = 0.7003 | 503 J/K/mol | –
323.15 K, m1 = 0.958 | 484.1 J/K/mol | –
328.15 K, m1 = 0.0096 | 524 J/K/mol | –
328.15 K, m1 = 0.01 | – | 986.41 kg/m3
328.15 K, m1 = 0.02 | – | 987.4 kg/m3
328.15 K, m1 = 0.0207 | 509 J/K/mol | –
328.15 K, m1 = 0.03 | 490 J/K/mol and 497 J/K/mol | 987.95 kg/m3 and 987.87 kg/m3
328.15 K, m1 = 0.07 | 501.3 J/K/mol | 990.79 kg/m3
328.15 K, m1 = 0.1502 | 492.7 J/K/mol | 997.12 kg/m3
328.15 K, m1 = 0.1999 | 503.9 J/K/mol | 999.48 kg/m3
328.15 K, m1 = 0.3018 | 506.8 J/K/mol | 1006.12 kg/m3
328.15 K, m1 = 0.5001 | 510.8 J/K/mol | 1018.64 kg/m3
328.15 K, m1 = 0.7003 | 511.5 J/K/mol | 1030.41 kg/m3
328.15 K, m1 = 0.958 | 492.8 J/K/mol | 1046.86 kg/m3
333.15 K, m1 = 0.0096 | 532 J/K/mol | –
333.15 K, m1 = 0.0207 | 517 J/K/mol | –
333.15 K, m1 = 0.03 | 498 J/K/mol and 506 J/K/mol | –
333.15 K, m1 = 0.07 | 509.2 J/K/mol | –
333.15 K, m1 = 0.1502 | 501.5 J/K/mol | –
333.15 K, m1 = 0.1999 | 512.1 J/K/mol | –
333.15 K, m1 = 0.3018 | 514.9 J/K/mol | –
333.15 K, m1 = 0.5001 | 518.8 J/K/mol | –
333.15 K, m1 = 0.7003 | 519.6 J/K/mol | –
333.15 K, m1 = 0.958 | 501.1 J/K/mol | –
338.15 K, m1 = 0.0096 | 540 J/K/mol | –
338.15 K, m1 = 0.0207 | 524 J/K/mol | –
338.15 K, m1 = 0.03 | 505 J/K/mol and 514 J/K/mol | –
338.15 K, m1 = 0.07 | 517 J/K/mol | –
338.15 K, m1 = 0.1502 | 510.1 J/K/mol | –
338.15 K, m1 = 0.1999 | 520 J/K/mol | –
338.15 K, m1 = 0.3018 | 522.8 J/K/mol | –
338.15 K, m1 = 0.5001 | 526.6 J/K/mol | –
338.15 K, m1 = 0.7003 | 527.5 J/K/mol | –
338.15 K, m1 = 0.958 | 509.1 J/K/mol | –
343.15 K, m1 = 0.0096 | 547 J/K/mol | –
343.15 K, m1 = 0.0207 | 532 J/K/mol | –
343.15 K, m1 = 0.03 | 511 J/K/mol and 523 J/K/mol | –
343.15 K, m1 = 0.07 | 524.3 J/K/mol | –
343.15 K, m1 = 0.1502 | 518.1 J/K/mol | –
343.15 K, m1 = 0.1999 | 527.4 J/K/mol | –
343.15 K, m1 = 0.3018 | 530.1 J/K/mol | –
343.15 K, m1 = 0.5001 | 533.9 J/K/mol | –
343.15 K, m1 = 0.7003 | 535 J/K/mol | –
343.15 K, m1 = 0.958 | 516.5 J/K/mol | –
348.15 K, m1 = 0.0096 | 554 J/K/mol | –
348.15 K, m1 = 0.01 | – | 975.69 kg/m3
348.15 K, m1 = 0.02 | – | 976.44 kg/m3
348.15 K, m1 = 0.0207 | 538 J/K/mol | –
348.15 K, m1 = 0.03 | 518 J/K/mol and 531 J/K/mol | 977.15 kg/m3 and 977.05 kg/m3
348.15 K, m1 = 0.07 | 531.6 J/K/mol | 979.84 kg/m3
348.15 K, m1 = 0.1502 | 525.9 J/K/mol | 986.13 kg/m3
348.15 K, m1 = 0.1999 | 534.7 J/K/mol | 988.48 kg/m3
348.15 K, m1 = 0.3018 | 537.2 J/K/mol | 995.03 kg/m3
348.15 K, m1 = 0.5001 | 540.8 J/K/mol | 1007.4 kg/m3
348.15 K, m1 = 0.7003 | 542.3 J/K/mol | 1019.03 kg/m3
348.15 K, m1 = 0.958 | 523.5 J/K/mol | 1035.29 kg/m3
353.15 K, m1 = 0.0096 | 561 J/K/mol | –
353.15 K, m1 = 0.0207 | 545 J/K/mol | –
353.15 K, m1 = 0.03 | 524 J/K/mol and 539 J/K/mol | –
353.15 K, m1 = 0.07 | 538.7 J/K/mol | –
353.15 K, m1 = 0.1502 | 533.4 J/K/mol | –
353.15 K, m1 = 0.1999 | 541.6 J/K/mol | –
353.15 K, m1 = 0.3018 | 544.1 J/K/mol | –
353.15 K, m1 = 0.5001 | 547.6 J/K/mol | –
353.15 K, m1 = 0.7003 | 549.6 J/K/mol | –
353.15 K, m1 = 0.958 | 530.3 J/K/mol | –
358.15 K, m1 = 0.0096 | 568 J/K/mol | –
358.15 K, m1 = 0.01 | – | 969.57 kg/m3
358.15 K, m1 = 0.02 | – | 969.97 kg/m3
358.15 K, m1 = 0.0207 | 552 J/K/mol | –
358.15 K, m1 = 0.03 | 529 J/K/mol and 547 J/K/mol | 970.91 kg/m3 and 970.89 kg/m3
358.15 K, m1 = 0.07 | 545.8 J/K/mol | 973.66 kg/m3
358.15 K, m1 = 0.1502 | 540.9 J/K/mol | 979.94 kg/m3
358.15 K, m1 = 0.1999 | 548.3 J/K/mol | 982.31 kg/m3
358.15 K, m1 = 0.3018 | 550.7 J/K/mol | 988.83 kg/m3
358.15 K, m1 = 0.5001 | 554.1 J/K/mol | 1000.87 kg/m3
358.15 K, m1 = 0.7003 | 556.9 J/K/mol | 1012.6 kg/m3
358.15 K, m1 = 0.958 | 536.9 J/K/mol | 1028.69 kg/m3
363.15 K, m1 = 0.0096 | 574 J/K/mol | –
363.15 K, m1 = 0.0207 | 558 J/K/mol | –
363.15 K, m1 = 0.03 | 533 J/K/mol and 553 J/K/mol | –
363.15 K, m1 = 0.07 | 551.5 J/K/mol | –
363.15 K, m1 = 0.1502 | 547.3 J/K/mol | –
363.15 K, m1 = 0.1999 | 554.3 J/K/mol | –
363.15 K, m1 = 0.3018 | 556.6 J/K/mol | –
363.15 K, m1 = 0.5001 | 559.9 J/K/mol | –
363.15 K, m1 = 0.7003 | 564.4 J/K/mol | –
363.15 K, m1 = 0.958 | 542.9 J/K/mol | –
368.15 K, m1 = 0.01 | – | 963.46 kg/m3
368.15 K, m1 = 0.02 | – | 963.16 kg/m3
368.15 K, m1 = 0.03 | – | 964.01 kg/m3 and 964.02 kg/m3
368.15 K, m1 = 0.07 | – | 966.84 kg/m3
368.15 K, m1 = 0.1502 | – | 973.05 kg/m3
368.15 K, m1 = 0.1999 | – | 975.42 kg/m3
368.15 K, m1 = 0.3018 | – | 981.89 kg/m3
368.15 K, m1 = 0.5001 | – | 994.17 kg/m3
368.15 K, m1 = 0.7003 | – | 1005.68 kg/m3
368.15 K, m1 = 0.958 | – | 1021.82 kg/m3
